# Source: patent US12281122B1, “PI3K inhibitors” (Cogent Biosciences, Inc., priority 2023, dated 2025)
# Columns and labels:
# [1] = system: T47D (PI3Kα-H1047R) cell line; experiment: HTRF phospho-AKT(S473) cell assay in T47D cells; format: cell-based, human; conditions: Homo sapiens; T47D (PI3Kα-H1047R) cells, HTRF phospho-AKT(S473), 2 hours compound incubation
# Procedure, shortened: (§1)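 T47D: RPMI + 10% FBS + 0.2 units/mL insulin, top 5 μM. SKBR3: McCoy's 5A + 10% FBS, top 10 μM, 70 ng/ml PDGF-BB last 15 min. Both: 12-pt 1:3, 2 h, 37° C, max 0.5% DMSO; HTRF pAKT(S473); IC50.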
# [2] = system: SKBR3 (PI3Kα-Wild Type) cell line; experiment: HTRF phospho-AKT(S473) cell assay in SKBR3 cells; format: cell-based, human; conditions: Homo sapiens, SK-BR-3; SKBR3 (PI3Kα-Wild Type) cells, HTRF phospho-AKT(S473), 2 hours compound incubation, PDGF-BB stimulated
# Procedure, shortened: as §1
Compound,IC50 [1],IC50 [2]
"Cc1cc([C@@H](C)Nc2ccc(Cl)nc2C(=O)NS(C)(=O)=O)c2nc(N3[C@@H]4CC[C@H]3C[C@@H](c3ccn(C)n3)C4)n(C)c(=O)c2c1 [Compound 340, 6-chloro-3-(((R)-1-(3,6-dimethyl-2-((1R,3R,5S)-3-(1-methyl-1H-pyrazol-3-yl)-8-azabicyclo[3.2.1]octan-8-yl)-4-oxo-3,4-dihydroquinazolin-8-yl)ethyl)amino)-N-(methylsulfonyl) picolinamide]",0.25 to 0.5 µM,≥ 5 µM
"Cc1cc([C@@H](C)Nc2ccc(Cl)nc2C(=O)NS(C)(=O)=O)c2nc(N3C[C@@H]4[C@@H](COc5ccnn5C)[C@@H]4C3)n(C)c(=O)c2c1 [Compound 341, 6-chloro-3-(((R)-1-(3,6-dimethyl-2-((1R,5S,6R)-6-(((1-methyl-1H-pyrazol-5-yl)oxy)methyl)-3-azabicyclo[3.1.0]hexan-3-yl)-4-oxo-3,4-dihydroquinazolin-8-yl)ethyl)amino)-N-(methylsulfonyl) picolinamide]",< 0.25 µM,1 to 5 µM
"Cc1cc([C@@H](C)Nc2ccc(Cl)nc2C(=O)NS(C)(=O)=O)c2nc(N3[C@@H]4CC[C@H]3C[C@H](c3ccn(C)n3)C4)n(C)c(=O)c2c1 [Compound 342, 6-chloro-3-(((R)-1-(3,6-dimethyl-2-((1R,3S,5S)-3-(1-methyl-1H-pyrazol-3-yl)-8-azabicyclo[3.2.1]octan-8-yl)-4-oxo-3,4-dihydroquinazolin-8-yl)ethyl)amino)-N-(methylsulfonyl) picolinamide]",< 0.25 µM,1 to 5 µM
"Cc1cc([C@@H](C)Nc2ccc(Cl)nc2C(=O)NS(C)(=O)=O)c2nc(N3CCC[C@@H](Oc4cccnc4)C3)n(C)c(=O)c2c1 [Compound 343, 6-chloro-3-(((R)-1-(3,6-dimethyl-4-oxo-2-((R)-3-(pyridin-3-yloxy)piperidin-1-yl)-3,4-dihydroquinazolin-8-yl)ethyl)amino)-N-(methylsulfonyl) picolinamide]",0.25 to 0.5 µM,≥ 5 µM
"Cc1cc([C@@H](C)Nc2ccc(Cl)nc2C(=O)NS(C)(=O)=O)c2nc(N3CCC4(CCc5c(cnn5C)C4)CC3)n(C)c(=O)c2c1 [Compound 344, (R)-6-chloro-3-((1-(3,6-dimethyl-2-(1-methyl-1,4,6,7-tetrahydrospiro[indazole-5,4′-piperidin]-1′-yl)-4-oxo-3,4-dihydroquinazolin-8-yl)ethyl)amino)-N-(methylsulfonyl) picolinamide]",< 0.25 µM,≥ 5 µM
"Cc1cc([C@@H](C)Nc2ccc(Cl)nc2C(=O)NS(C)(=O)=O)c2nc(N3CC[C@@H](Oc4cccnc4)C3)n(C)c(=O)c2c1 [Compound 345, 6-chloro-3-(((R)-1-(3,6-dimethyl-4-oxo-2-((R)-3-(pyridin-3-yloxy)pyrrolidin-1-yl)-3,4-dihydroquinazolin-8-yl)ethyl)amino)-N-(methylsulfonyl) picolinamide]",< 0.25 µM,1 to 5 µM
"Cc1cc([C@@H](C)Nc2ccc(Cl)nc2C(=O)NS(C)(=O)=O)c2nc(N3CCC(c4cccn(C)c4=O)CC3)n(C)c(=O)c2c1 [Compound 348, (R)-6-chloro-3-((1-(3,6-dimethyl-2-(4-(1-methyl-2-oxo-1,2-dihydropyridin-3-yl)piperidin-1-yl)-4-oxo-3,4-dihydroquinazolin-8-yl)ethyl)amino)-N-(methylsulfonyl) picolinamide]",< 0.25 µM,≥ 5 µM
"Cc1cc([C@@H](C)Nc2ccc(Cl)nc2C(=O)NS(C)(=O)=O)c2nc(-c3ccc(N(C)C)nc3)n(C)c(=O)c2c1 [Compound 349, (R)-6-chloro-3-((1-(2-(6-(dimethylamino)pyridin-3-yl)-3,6-dimethyl-4-oxo-3,4-dihydroquinazolin-8-yl)ethyl)amino)-N-(methylsulfonyl) picolinamide]",< 0.25 µM,1 to 5 µM
"Cc1cc([C@@H](C)Nc2ccc(Cl)nc2C(=O)NS(C)(=O)=O)c2nc(N3Cc4nn(-c5ccccc5C)c(N)c4C3)n(C)c(=O)c2c1 [Compound 350, (R)-3-((1-(2-(3-amino-2-(o-tolyl)-2,6-dihydropyrrolo[3,4-c]pyrazol-5(4H)-yl)-3,6-dimethyl-4-oxo-3,4-dihydroquinazolin-8-yl)ethyl)amino)-6-chloro-N-(methylsulfonyl) picolinamide]",< 0.25 µM,≥ 5 µM
"Cc1cc([C@@H](C)Nc2ccc(Cl)nc2C(=O)NS(C)(=O)=O)c2nc(N3CC[C@H](Oc4ccnn4C)C3)n(C)c(=O)c2c1 [Compound 351, 6-chloro-3-(((R)-1-(3,6-dimethyl-2-((S)-3-((1-methyl-1H-pyrazol-5-yl)oxy)pyrrolidin-1-yl)-4-oxo-3,4-dihydroquinazolin-8-yl)ethyl)amino)-N-(methylsulfonyl) picolinamide]",< 0.25 µM,1 to 5 µM
"Cc1cc([C@@H](C)Nc2ccc(Cl)nc2C(=O)NS(C)(=O)=O)c2nc(N3CC[C@@H](Oc4ccnn4C)C3)n(C)c(=O)c2c1 [Compound 352, 6-chloro-3-(((R)-1-(3,6-dimethyl-2-((R)-3-((1-methyl-1H-pyrazol-5-yl)oxy)pyrrolidin-1-yl)-4-oxo-3,4-dihydroquinazolin-8-yl)ethyl)amino)-N-(methylsulfonyl) picolinamide]",< 0.25 µM,1 to 5 µM
"Cc1cc([C@@H](C)Nc2ccc(Cl)nc2C(=O)NS(C)(=O)=O)c2nc(N3CC[C@H](Oc4ccnnc4)C3)n(C)c(=O)c2c1 [Compound 353, 6-chloro-3-(((R)-1-(3,6-dimethyl-4-oxo-2-((S)-3-(pyridazin-4-yloxy)pyrrolidin-1-yl)-3,4-dihydroquinazolin-8-yl)ethyl)amino)-N-(methylsulfonyl) picolinamide]",0.25 to 0.5 µM,1 to 5 µM
"Cc1cc([C@@H](C)Nc2ccc(Cl)nc2C(=O)NS(C)(=O)=O)c2nc(N3CC[C@H](Oc4cncnc4)C3)n(C)c(=O)c2c1 [Compound 354, 6-chloro-3-(((R)-1-(3,6-dimethyl-4-oxo-2-((S)-3-(pyrimidin-5-yloxy)pyrrolidin-1-yl)-3,4-dihydroquinazolin-8-yl)ethyl)amino)-N-(methylsulfonyl) picolinamide]",< 0.25 µM,1 to 5 µM
"Cc1cc([C@@H](C)Nc2ccc(Cl)nc2C(=O)NS(C)(=O)=O)c2nc(N3CCC(c4cc(C#N)n(C)n4)CC3)n(C)c(=O)c2c1 [Compound 357, (R)-6-chloro-3-((1-(2-(4-(5-cyano-1-methyl-1H-pyrazol-3-yl)piperidin-1-yl)-3,6-dimethyl-4-oxo-3,4-dihydroquinazolin-8-yl)ethyl)amino)-N-(methylsulfonyl) picolinamide]",< 0.25 µM,1 to 5 µM
"Cc1cc([C@@H](C)Nc2ccc(Cl)nc2C(=O)NS(C)(=O)=O)c2nc(N3CCC4(CCN(c5ccn(C)n5)CC4)C3)n(C)c(=O)c2c1 [Compound 358, (R)-6-chloro-3-((1-(3,6-dimethyl-2-(8-(1-methyl-1H-pyrazol-3-yl)-2,8-diazaspiro[4.5]decan-2-yl)-4-oxo-3,4-dihydroquinazolin-8-yl)ethyl)amino)-N-(methylsulfonyl) picolinamide]",< 0.25 µM,1 to 5 µM
"Cc1cc([C@@H](C)Nc2ccc(Cl)nc2C(=O)NS(C)(=O)=O)c2nc(N3CCC4(CCN(c5ccn(C)n5)C4)CC3)n(C)c(=O)c2c1 [Compound 359, (R)-6-chloro-3-((1-(3,6-dimethyl-2-(2-(1-methyl-1H-pyrazol-3-yl)-2,8-diazaspiro[4.5]decan-8-yl)-4-oxo-3,4-dihydroquinazolin-8-yl)ethyl)amino)-N-(methylsulfonyl) picolinamide]",0.25 to 0.5 µM,≥ 5 µM
"Cc1cc([C@@H](C)Nc2ccc(Cl)nc2C(=O)NS(C)(=O)=O)c2nc(N3CCC[C@@H](Oc4cncnc4)C3)n(C)c(=O)c2c1 [Compound 360, 6-chloro-3-(((R)-1-(3,6-dimethyl-4-oxo-2-((R)-3-(pyrimidin-5-yloxy)piperidin-1-yl)-3,4-dihydroquinazolin-8-yl)ethyl)amino)-N-(methylsulfonyl) picolinamide]",0.25 to 0.5 µM,≥ 5 µM
"Cc1cc([C@@H](C)Nc2ccc(Cl)nc2C(=O)NS(C)(=O)=O)c2nc(N3CCC4(CCN(c5ccn(C)n5)CC4)CC3)n(C)c(=O)c2c1 [Compound 361, (R)-6-chloro-3-((1-(3,6-dimethyl-2-(9-(1-methyl-1H-pyrazol-3-yl)-3,9-diazaspiro[5.5]undecan-3-yl)-4-oxo-3,4-dihydroquinazolin-8-yl)ethyl)amino)-N-(methylsulfonyl) picolinamide]",0.25 to 0.5 µM,≥ 5 µM
"Cc1cc([C@@H](C)Nc2ccc(Cl)nc2C(=O)NS(C)(=O)=O)c2nc(N3CC[C@H](Oc4cc[nH]n4)C3)n(C)c(=O)c2c1 [Compound 362, 3-(((R)-1-(2-((S)-3-((1H-pyrazol-3-yl)oxy)pyrrolidin-1-yl)-3,6-dimethyl-4-oxo-3,4-dihydroquinazolin-8-yl)ethyl)amino)-6-chloro-N-(methylsulfonyl) picolinamide]",< 0.25 µM,1 to 5 µM
"Cc1cc([C@@H](C)Nc2ccc(Cl)nc2C(=O)NS(C)(=O)=O)c2nc(N3CC[C@@H](Oc4cc[nH]n4)C3)n(C)c(=O)c2c1 [Compound 363, 3-(((R)-1-(2-((R)-3-((1H-pyrazol-3-yl)oxy)pyrrolidin-1-yl)-3,6-dimethyl-4-oxo-3,4-dihydroquinazolin-8-yl)ethyl)amino)-6-chloro-N-(methylsulfonyl) picolinamide]",< 0.25 µM,1 to 5 µM
"C[C@@H](Nc1ccc(Cl)nc1C(=O)NS(C)(=O)=O)c1cc(F)cc2c(=O)n(C)c(N3CCC(c4nn(C)cc4F)CC3)nc12 [Compound 364, (R)-6-chloro-3-((1-(6-fluoro-2-(4-(4-fluoro-1-methyl-1H-pyrazol-3-yl)piperidin-1-yl)-3-methyl-4-oxo-3,4-dihydroquinazolin-8-yl)ethyl)amino)-N-(methylsulfonyl) picolinamide]",0.25 to 0.5 µM,1 to 5 µM
